Results as given in patent US9326973B2, “Hepatitis C virus inhibitors” (priority 2012, dated 2016).

System: HCV replicon, genotype-1a variant with glutamine 30 changed to glutamate in the NS5A protein
Test: microbe, parasite or virus in culture
Format: cell-based, HCV genotype 1a
Conditions: HCV replicon genotype 1a Q30E (Q→E) variant; test compound titrated with an NS5A-targeting compound (BMS-790052 fixed at 200 nM); ranking of synergist activity
How it was run: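 Synergy was assessed by combining several fixed amounts of an NS5A-targeting compound with a titration of the second compound of interest.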

| Compound | Fold-Synergistic 1a (Q30E) [fold] |
| --- | --- |
| CC(C)(C)C(=O)N1C[C@H](F)C[C@H]1C(=O)N[C@H](c1nc(-c2ccc(-c3ccc(-c4c[nH]c([C@@H](NC(=O)[C@@H]5C[C@@H](F)CN5C(=O)C(C)(C)C)C(C)(C)C)n4)cc3)cc2)c[nH]1)C(C)(C)C [Compound W-105] | >100 |
| CC(C)OC(=O)N1C[C@H](F)C[C@H]1C(=O)N[C@H](c1nc(-c2ccc(-c3ccc(-c4c[nH]c([C@@H](NC(=O)[C@@H]5C[C@@H](F)CN5C(=O)OC(C)C)C(C)(C)C)n4)cc3)cc2)c[nH]1)C(C)(C)C [Compound W-107] | >100 |
| CC(C)(C)[C@H](NC(=O)[C@@H]1C[C@@H](F)CN1C(=O)OCCF)c1nc(-c2ccc(-c3ccc(-c4c[nH]c([C@@H](NC(=O)[C@@H]5C[C@@H](F)CN5C(=O)OCCF)C(C)(C)C)n4)cc3)cc2)c[nH]1 [Compound W-108] | >100 |
| COC(=O)N1C[C@H](F)C[C@H]1C(=O)N[C@H](c1nc(-c2ccc(-c3ccc(-c4c[nH]c([C@@H](NC(=O)[C@@H]5C[C@@H](F)CN5C(=O)OC)C(C)(C)C)n4)cc3)cc2)c[nH]1)C(C)(C)C [Compound W-109] | >100 |
| COCCOC(=O)N1C[C@H](F)C[C@H]1C(=O)N[C@H](c1nc(-c2ccc(-c3ccc(-c4c[nH]c([C@@H](NC(=O)[C@@H]5C[C@@H](F)CN5C(=O)OCCOC)C(C)(C)C)n4)cc3)cc2)c[nH]1)C(C)(C)C [Compound W-110] | >100 |
| CO[C@H]1C[C@@H](C(=O)N[C@H](c2nc(-c3ccc(-c4ccc(-c5c[nH]c([C@@H](NC(=O)[C@@H]6C[C@H](OC)CN6C(=O)OC(C)(C)C)C(C)(C)C)n5)cc4)cc3)c[nH]2)C(C)(C)C)N(C(=O)OC(C)(C)C)C1 [Compound W-115] | >100 |
| CC1(OC(=O)N2C[C@H](F)C[C@H]2C(=O)N[C@H](c2nc(-c3ccc(-c4ccc(-c5c[nH]c([C@@H](NC(=O)[C@@H]6C[C@@H](F)CN6C(=O)OC6(C)CC6)C(C)(C)C)n5)cc4)cc3)c[nH]2)C(C)(C)C)CC1 [Compound W-119] | >100 |
| C[C@@H]1C[C@@H](C(=O)N[C@H](c2nc(-c3ccc(-c4ccc(-c5c[nH]c([C@@H](NC(=O)[C@@H]6C[C@@H](C)CN6C(=O)OC(C)(C)C)C(C)(C)C)n5)cc4)cc3)c[nH]2)C(C)(C)C)N(C(=O)OC(C)(C)C)C1 [Compound W-120] | >100 |
| CC(C)(C)OC(=O)N1[C@@H]2CC[C@@H](C2)[C@H]1C(=O)N[C@H](c1nc(-c2ccc(-c3ccc(-c4c[nH]c([C@@H](NC(=O)[C@@H]5[C@H]6CC[C@H](C6)N5C(=O)OC(C)(C)C)C(C)(C)C)n4)cc3)cc2)c[nH]1)C(C)(C)C [Compound W-121] | >100 |
| CC1(C)CC(C(=O)N[C@H](c2nc(-c3ccc(-c4ccc(-c5c[nH]c([C@@H](NC(=O)C6CCOC(C)(C)C6)C(C)(C)C)n5)cc4)cc3)c[nH]2)C(C)(C)C)CCO1 (some centres unmarked) [Compound W-122] | >100 |
| CC(C)(C)[C@H](NC(=O)C1CCOCC1)c1nc(-c2ccc(-c3ccc(-c4c[nH]c([C@@H](NC(=O)C5CCOCC5)C(C)(C)C)n4)cc3)cc2)c[nH]1 [Compound W-123] | >100 |
| COC(=O)C1(C(=O)N[C@H](c2nc(-c3ccc(-c4ccc(-c5c[nH]c([C@@H](NC(=O)C6(C(=O)OC)CC6)C(C)(C)C)n5)cc4)cc3)c[nH]2)C(C)(C)C)CC1 [Compound W-124] | >100 |
| CC(CO)(CO)C(=O)N[C@H](c1nc(-c2ccc(-c3ccc(-c4c[nH]c([C@@H](NC(=O)C(C)(CO)CO)C(C)(C)C)n4)cc3)cc2)c[nH]1)C(C)(C)C [Compound W-125] | >100 |
| CCOC(=O)C(C)(C)C(=O)N[C@H](c1nc(-c2ccc(-c3ccc(-c4c[nH]c([C@@H](NC(=O)C(C)(C)C(=O)OCC)C(C)(C)C)n4)cc3)cc2)c[nH]1)C(C)(C)C [Compound W-126] | >100 |
| CC(C)(C)[C@H](NC(=O)C12CCC(O)(CC1)CC2)c1nc(-c2ccc(-c3ccc(-c4c[nH]c([C@@H](NC(=O)C56CCC(O)(CC5)CC6)C(C)(C)C)n4)cc3)cc2)c[nH]1 [Compound W-128] | >100 |
| CC(C)(C)[C@H](NC(=O)C1CCOC1)c1nc(-c2ccc(-c3ccc(-c4c[nH]c([C@@H](NC(=O)C5CCOC5)C(C)(C)C)n4)cc3)cc2)c[nH]1 (some centres unmarked) [Compound W-129] | >10 |
| CC1(C(=O)N[C@H](c2nc(-c3ccc(-c4ccc(-c5c[nH]c([C@@H](NC(=O)C6(C)CCOCC6)C(C)(C)C)n5)cc4)cc3)c[nH]2)C(C)(C)C)CCOCC1 [Compound W-130] | >100 |
| CC(C)(C)[C@H](NC(=O)C1CCCOC1)c1nc(-c2ccc(-c3ccc(-c4c[nH]c([C@@H](NC(=O)C5CCCOC5)C(C)(C)C)n4)cc3)cc2)c[nH]1 (some centres unmarked) [Compound W-131] | >100 |

| Compound | Fold-Synergistic 1a (Q30E) [fold] |
| --- | --- |
| CC(C)(C)OC(=O)NC1(C(=O)N[C@H](c2nc(-c3ccc(-c4ccc(-c5c[nH]c([C@@H](NC(=O)C6(NC(=O)OC(C)(C)C)CCOCC6)C(C)(C)C)n5)cc4)cc3)c[nH]2)C(C)(C)C)CCOCC1 [Compound W-132] | >100 |
| CC(C)(C)[C@H](NC(=O)[C@H]1CC[C@@H](O)CC1)c1nc(-c2ccc(-c3ccc(-c4c[nH]c([C@@H](NC(=O)[C@H]5CC[C@@H](O)CC5)C(C)(C)C)n4)cc3)cc2)c[nH]1 [Compound W-134] | >100 |
| CC(C)(C(=O)N[C@H](c1nc(-c2ccc(-c3ccc(-c4c[nH]c([C@@H](NC(=O)C(C)(C)C(=O)N5CCC(O)CC5)C(C)(C)C)n4)cc3)cc2)c[nH]1)C(C)(C)C)C(=O)N1CCC(O)CC1 [Compound W-136] | >10 |
| CN(C)C(=O)C(C)(C)C(=O)N[C@H](c1nc(-c2ccc(-c3ccc(-c4c[nH]c([C@@H](NC(=O)C(C)(C)C(=O)N(C)C)C(C)(C)C)n4)cc3)cc2)c[nH]1)C(C)(C)C [Compound W-138] | >100 |
| CC(C)(C(=O)NCC(F)(F)F)C(=O)N[C@H](c1nc(-c2ccc(-c3ccc(-c4c[nH]c([C@@H](NC(=O)C(C)(C)C(=O)NCC(F)(F)F)C(C)(C)C)n4)cc3)cc2)c[nH]1)C(C)(C)C [Compound W-139] | >100 |
| CN(C(=O)C(C)(C)C(=O)N[C@H](c1nc(-c2ccc(-c3ccc(-c4c[nH]c([C@@H](NC(=O)C(C)(C)C(=O)N(C)C5CC5)C(C)(C)C)n4)cc3)cc2)c[nH]1)C(C)(C)C)C1CC1 [Compound W-140] | <10 |
| CC(C)(C(=O)N[C@H](c1nc(-c2ccc(-c3ccc(-c4c[nH]c([C@@H](NC(=O)C(C)(C)C(=O)N5CCC(F)(F)CC5)C(C)(C)C)n4)cc3)cc2)c[nH]1)C(C)(C)C)C(=O)N1CCC(F)(F)CC1 [Compound W-141] | >100 |
| CC(C)(C(=O)N[C@H](c1nc(-c2ccc(-c3ccc(-c4c[nH]c([C@@H](NC(=O)C(C)(C)C(=O)N5CCC(F)CC5)C(C)(C)C)n4)cc3)cc2)c[nH]1)C(C)(C)C)C(=O)N1CCC(F)CC1 [Compound W-142] | >100 |
| COC1CCN(C(=O)C(C)(C)C(=O)N[C@H](c2nc(-c3ccc(-c4ccc(-c5c[nH]c([C@@H](NC(=O)C(C)(C)C(=O)N6CCC(OC)CC6)C(C)(C)C)n5)cc4)cc3)c[nH]2)C(C)(C)C)CC1 [Compound W-143] | >100 |
| CC(C)(C(=O)N[C@H](c1nc(-c2ccc(-c3ccc(-c4c[nH]c([C@@H](NC(=O)C(C)(C)C(=O)N5CC(O)C5)C(C)(C)C)n4)cc3)cc2)c[nH]1)C(C)(C)C)C(=O)N1CC(O)C1 [Compound W-144] | >10 |
| CC(C)(C(=O)N[C@H](c1nc(-c2ccc(-c3ccc(-c4c[nH]c([C@@H](NC(=O)C(C)(C)C(=O)N5CC6CCC(C5)O6)C(C)(C)C)n4)cc3)cc2)c[nH]1)C(C)(C)C)C(=O)N1CC2CCC(C1)O2 [Compound W-145] | >10 |
| C[C@@H]1CCCCN1C(=O)C(C)(C)C(=O)N[C@H](c1nc(-c2ccc(-c3ccc(-c4c[nH]c([C@@H](NC(=O)C(C)(C)C(=O)N5CCCC[C@H]5C)C(C)(C)C)n4)cc3)cc2)c[nH]1)C(C)(C)C [Compound W-148] | >100 |
| CC(C)(Br)C(=O)N[C@H](c1nc(-c2ccc(-c3ccc(-c4c[nH]c([C@@H](NC(=O)C(C)(C)Br)C(C)(C)C)n4)cc3)cc2)c[nH]1)C(C)(C)C [Compound W-149] | >100 |
| CC(C)(C)[C@H](NC(=O)C(C)(C)n1cnc(C(F)(F)F)c1)c1nc(-c2ccc(-c3ccc(-c4c[nH]c([C@@H](NC(=O)C(C)(C)n5cnc(C(F)(F)F)c5)C(C)(C)C)n4)cc3)cc2)c[nH]1 [Compound W-150] | >100 |
| CC(C)(C(=O)N[C@H](c1nc(-c2ccc(-c3ccc(-c4c[nH]c([C@@H](NC(=O)C(C)(C)C(=O)N5CC[C@@H](O)C5)C(C)(C)C)n4)cc3)cc2)c[nH]1)C(C)(C)C)C(=O)N1CC[C@@H](O)C1 [Compound W-151] | >10 |
| CC(C)(C(=O)N[C@H](c1nc(-c2ccc(-c3ccc(-c4c[nH]c([C@@H](NC(=O)C(C)(C)C(=O)N5CC[C@H](O)C5)C(C)(C)C)n4)cc3)cc2)c[nH]1)C(C)(C)C)C(=O)N1CC[C@H](O)C1 [Compound W-152] | >100 |
| CC(C)(C(=O)N[C@H](c1nc(-c2ccc(-c3ccc(-c4c[nH]c([C@@H](NC(=O)C(C)(C)C(=O)N5CC6CC6C5)C(C)(C)C)n4)cc3)cc2)c[nH]1)C(C)(C)C)C(=O)N1CC2CC2C1 (some centres unmarked) [Compound W-153] | >100 |
